Source: US10750743B2, “Pyridazinone herbicides” (E.I. DU PONT DE NEMOURS AND COMPANY, priority 2015, dated 2020)

Experiments:
Assay type in all cases: in vivo
[1] = tested on: pigweed (Amaranthus retroflexus); experiment: Test A preemergence, directed soil spray, visual injury rating; conditions: 0 is no effect, 100 is complete control
Outline: (§1)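 Seeds sown in a loam soil–sand blend received a directed preemergence soil spray of test chemical in a non-phytotoxic solvent mixture with surfactant. Postemergence plants were sprayed at 2 to 10 cm, one- to two-leaf stage. After approximately 10 d in greenhouse, injury was visually rated 0 (no effect) to 100 (complete control) against untreated controls.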

kochia (Kochia scoparia) [2] = experiment: as above; conditions: 0 is no effect, 100 is complete control
Outline: as §1

[3] = tested on: foxtail, giant (giant foxtail, Setaria faberii); experiment: as above; conditions: 0 is no effect, 100 is complete control
Outline: as §1

[4] = tested on: ryegrass, It. (Italian ryegrass, Lolium multiflorum); experiment: as above; conditions: 0 is no effect, 100 is complete control
Outline: as §1

[5] = tested on: barnyardgrass (Echinochloa crus-galli); experiment: as above; conditions: 0 is no effect, 100 is complete control
Outline: as §1

[6] = tested on: ragweed (common ragweed, Ambrosia elatior); experiment: as above; conditions: 0 is no effect, 100 is complete control
Outline: as §1

[7] = tested on: ducksalad (Heteranthera limosa); experiment: Test B flooded paddy test, visual rating; conditions: Flood, 250 g ai/ha, applied to paddy water, rated after 13 to 15 d
Procedure: (§2) Plant species in the flooded paddy test selected from rice (Oryza sativa), sedge, umbrella (small-flower umbrella sedge, Cyperus difformis), ducksalad (Heteranthera limosa), and barnyardgrass (Echinochloa crus-galli) were grown to the 2-leaf stage for testing. At time of treatment, test pots were flooded to 3 cm above the soil surface, treated by application of test compounds directly to the paddy water, and then maintained at that water depth for the duration of the test. Treated plants and controls were maintained in a greenhouse for 13 to 15 d, after which time all species were compared to controls and visually evaluated. Plant response ratings, summarized in Table B, are based on a scale of 0 to 100 where 0 is no effect and 100 is complete control. A dash (-) response means no test result.

[8] = tested on: barnyardgrass (Echinochloa crus-galli); experiment: Test B flooded paddy test, visual rating; conditions: Flood, 250 g ai/ha, applied to paddy water, rated after 13 to 15 d
Procedure: as §2

[9] = tested on: sedge, umbrella (small-flower umbrella sedge, Cyperus difformis); experiment: Test B flooded paddy test, visual rating; conditions: Flood, 250 g ai/ha, applied to paddy water, rated after 13 to 15 d
Procedure: as §2

rice (Oryza sativa) = experiment: Test B flooded paddy test, visual rating; conditions: Flood, 250 g ai/ha, applied to paddy water, rated after 13 to 15 d
Procedure: as §2

[10] = tested on: pigweed (Amaranthus retroflexus); experiment: Test A postemergence application, visual injury rating; conditions: for Pigweed plant response rating: 0 to 100 scale, 0 no effect, 100 complete control
Outline: as §1

[11] = tested on: galium (catchweed bedstraw, Galium aparine); experiment: as above; conditions: for Galium plant response rating: 0 to 100 scale, 0 no effect, 100 complete control
Outline: as §1

kochia (Kochia scoparia) [12] = experiment: as above; conditions: for Kochia plant response rating: 0 to 100 scale, 0 no effect, 100 complete control
Outline: as §1

[13] = tested on: foxtail, giant (giant foxtail, Setaria faberii); experiment: as above; conditions: for Foxtail, Giant plant response rating: 0 to 100 scale, 0 no effect, 100 complete control
Outline: as §1

[14] = tested on: ryegrass, It. (Italian ryegrass, Lolium multiflorum); experiment: as above; conditions: for Ryegrass, It. plant response rating: 0 to 100 scale, 0 no effect, 100 complete control
Outline: as §1

[15] = tested on: barnyardgrass (Echinochloa crus-galli); experiment: as above; conditions: 0 to 100 scale, 0 no effect, 100 complete control
Outline: as §1

corn (Zea mays) = experiment: as above; conditions: for Corn plant response rating: 0 to 100 scale, 0 no effect, 100 complete control
Outline: as §1

[16] = tested on: ragweed (common ragweed, Ambrosia elatior); experiment: as above; conditions: for Ragweed plant response rating: 0 to 100 scale, 0 no effect, 100 complete control
Outline: as §1

[17] = tested on: blackgrass (Alopecurus myosuroides); experiment: as above; conditions: 0 to 100 scale, 0 no effect, 100 complete control
Outline: as §1

[18] = tested on: wheat (Triticum aestivum); experiment: as above; conditions: for Wheat plant response rating: 0 to 100 scale, 0 no effect, 100 complete control
Outline: as §1

[19] = 31 g ai/ha, 0 is no effect, 100 is complete control

| SMILES | Plant response rating (0 to 100 scale), Pigweed ([1]; 31 g ai/ha) | Plant response rating (0 to 100 scale), Pigweed ([1]; 125 g ai/ha) | Plant response rating (0 to 100 scale), Kochia (kochia (Kochia scoparia) [2]; 31 g ai/ha) | Plant response rating (0 to 100 scale), Kochia (kochia (Kochia scoparia) [2]; 125 g ai/ha) | Plant response rating (0 to 100 scale), Foxtail, Giant ([3]; 31 g ai/ha) | Plant response rating (0 to 100 scale), Foxtail, Giant ([3]; 125 g ai/ha) | Plant response rating (0 to 100 scale), Ryegrass, It. ([4]; 31 g ai/ha) | Plant response rating (0 to 100 scale), Ryegrass, It. ([4]; 125 g ai/ha) | Plant response rating (0 to 100 scale), Barnyardgrass ([5]; 31 g ai/ha) | Plant response rating (0 to 100 scale), Barnyardgrass ([5]; 125 g ai/ha) | Plant response rating (0 to 100 scale), Ragweed ([6]; 31 g ai/ha) | Plant response rating (0 to 100 scale), Ragweed ([6]; 125 g ai/ha) | Ducksalad plant response rating (0 to 100 scale, 0 is no effect, 100 is complete control) [7] | Barnyardgrass plant response rating (0 to 100 scale, 0 is no effect, 100 is complete control) [8] | Sedge, Umbrella plant response rating (0 to 100 scale, 0 is no effect, 100 is complete control) [9] | Rice plant response rating (0 to 100 scale, 0 is no effect, 100 is complete control) (rice (Oryza sativa)) | Pigweed plant response rating ([10]; 125 g ai/ha) | Galium plant response rating ([11]; 125 g ai/ha) | Kochia plant response rating (kochia (Kochia scoparia) [12]; 125 g ai/ha) | Foxtail, Giant plant response rating ([13]; 125 g ai/ha) | also measured |
| --- | --- | --- | --- | --- | --- | --- | --- | --- | --- | --- | --- | --- | --- | --- | --- | --- | --- | --- | --- | --- | --- |
| COC(=O)Oc1c(C)nn(C)c(=O)c1-c1ccc(Cl)c2ccsc12 [Compound 50] | 0 | 100 | 0 | 20 | 0 | 10 | 60 | 80 | 0 | 10 | 0 | 20 | 0 | 0 | 0 | 0 | 70 | 100 | 90 | 0 | Pigweed plant response rating ([10]; 31 g ai/ha): 60; Galium plant response rating ([11]; 31 g ai/ha): 100; Kochia plant response rating (kochia (Kochia scoparia) [12]; 31 g ai/ha): 40; Foxtail, Giant plant response rating ([13]; 31 g ai/ha): 0; Ryegrass, It. plant response rating ([14]; 31 g ai/ha): 60; Ryegrass, It. plant response rating ([14]; 125 g ai/ha): 90; Barnyardgrass plant response rating ([15]; 31 g ai/ha): 0; Barnyardgrass plant response rating ([15]; 125 g ai/ha): 10; Corn plant response rating (corn (Zea mays); 31 g ai/ha): 0; Corn plant response rating (corn (Zea mays); 125 g ai/ha): 0; Ragweed plant response rating ([16]; 31 g ai/ha): 10; Ragweed plant response rating ([16]; 125 g ai/ha): 70; Blackgrass plant response rating ([17]; 31 g ai/ha): 0; Blackgrass plant response rating ([17]; 125 g ai/ha): 10; Wheat plant response rating ([18]; 31 g ai/ha): 0; Wheat plant response rating ([18]; 125 g ai/ha): 0 |
| Cc1nn(C)c(=O)c(-c2ccc(Cl)c3sccc23)c1O [Compound 63] | 0 | 0 | 10 | 20 | 0 | 0 | 0 | 20 | 0 | 0 | 0 | 0 | 0 | 0 | 0 | 0 | 50 | 90 | 60 | 0 | Plant response rating (0 to 100 scale), Pigweed [10, 19]: 0; Plant response rating (0 to 100 scale), Galium [11, 19]: 30; Plant response rating (0 to 100 scale), Kochia (kochia (Kochia scoparia) [12]; [19]): 0; Plant response rating (0 to 100 scale), Foxtail, Giant [13, 19]: 0; Plant response rating (0 to 100 scale), Ryegrass, It. [14, 19]: 0; Ryegrass, It. plant response rating ([14]; 125 g ai/ha): 10; Barnyardgrass plant response rating ([15]; 31 g ai/ha): 0; Barnyardgrass plant response rating ([15]; 125 g ai/ha): 0; Plant response rating (0 to 100 scale), Corn (corn (Zea mays); [19]): 0; Corn plant response rating (corn (Zea mays); 125 g ai/ha): 0; Plant response rating (0 to 100 scale), Ragweed [16, 19]: 0; Ragweed plant response rating ([16]; 125 g ai/ha): 0; Blackgrass plant response rating ([17]; 31 g ai/ha): 0; Blackgrass plant response rating ([17]; 125 g ai/ha): 0; Plant response rating (0 to 100 scale), Wheat [18, 19]: 0; Wheat plant response rating ([18]; 125 g ai/ha): 0 |
| Cc1ccc2sc(Cl)cc2c1-c1c(O)c(C)nn(C)c1=O [Compound 46] | 100 | 100 | 50 | 80 | 30 | 80 | 90 | 100 | 0 | 50 | 80 | 80 | 0 | 0 | 70 | 0 | 90 | 90 | 90 | 90 | Pigweed plant response rating ([10]; 31 g ai/ha): 90; Galium plant response rating ([11]; 31 g ai/ha): 90; Kochia plant response rating (kochia (Kochia scoparia) [12]; 31 g ai/ha): 60; Foxtail, Giant plant response rating ([13]; 31 g ai/ha): 50; Ryegrass, It. plant response rating ([14]; 31 g ai/ha): 90; Ryegrass, It. plant response rating ([14]; 125 g ai/ha): 100; Barnyardgrass plant response rating ([15]; 31 g ai/ha): 10; Barnyardgrass plant response rating ([15]; 125 g ai/ha): 30; Corn plant response rating (corn (Zea mays); 31 g ai/ha): 0; Corn plant response rating (corn (Zea mays); 125 g ai/ha): 20; Ragweed plant response rating ([16]; 31 g ai/ha): 90; Ragweed plant response rating ([16]; 125 g ai/ha): 100; Blackgrass plant response rating ([17]; 31 g ai/ha): 40; Blackgrass plant response rating ([17]; 125 g ai/ha): 70; Wheat plant response rating ([18]; 31 g ai/ha): 0; Wheat plant response rating ([18]; 125 g ai/ha): 20 |
| CC(=O)Oc1c(C)nn(C)c(=O)c1-c1ccc(Cl)c2oc(C)cc12 [Compound 54] | 0 | 20 | 0 | 0 | 0 | 0 | 30 | 50 | 0 | 0 | 0 | 10 | 0 | 0 | 70 | 0 | 40 | 70 | 10 | 0 | Pigweed plant response rating ([10]; 31 g ai/ha): 30; Galium plant response rating ([11]; 31 g ai/ha): 50; Kochia plant response rating (kochia (Kochia scoparia) [12]; 31 g ai/ha): 0; Foxtail, Giant plant response rating ([13]; 31 g ai/ha): 0; Ryegrass, It. plant response rating ([14]; 31 g ai/ha): 20; Ryegrass, It. plant response rating ([14]; 125 g ai/ha): 60; Barnyardgrass plant response rating ([15]; 31 g ai/ha): 0; Barnyardgrass plant response rating ([15]; 125 g ai/ha): 0; Corn plant response rating (corn (Zea mays); 31 g ai/ha): 0; Corn plant response rating (corn (Zea mays); 125 g ai/ha): 0; Ragweed plant response rating ([16]; 31 g ai/ha): 0; Ragweed plant response rating ([16]; 125 g ai/ha): 0; Blackgrass plant response rating ([17]; 31 g ai/ha): 0; Blackgrass plant response rating ([17]; 125 g ai/ha): 0; Wheat plant response rating ([18]; 31 g ai/ha): 0; Wheat plant response rating ([18]; 125 g ai/ha): 0 |
